Experimental findings from patent EP2149552A1, “5,6 substituted benzamide derivatives as modulators of EP2 receptors” (Bayer Schering Pharma Aktiengesellschaft, priority 2008, dated 2010) are described below.

The test system of one assay is Kumulus-Eizell Komplexe. The experiment in a line: cumulus expansion test in vitro. The class given is cell-based, Mäusen. Conditions: competing with the natural agonist PGE2. An excerpt:
In immaturen weiblichen Mäusen (Stamm : CD1 (ICR) von Charles River) wurde in einem Alter von 14 - 18 Tagen die Follikulogenese durch eine einmalige Gabe (intraperitoneal) von 10 I.E. PMSG (Pregnant Mare Serum Gonadotropine; Sigma G-4877, Lot 68H0909) induziert. 47 - 50 Stunden nach der Injektion wurden die Ovarien entnommen und die Kumulus-Eizell Komplexe entnommen. Der Kumulus Komplex ist in diesem Stadium noch nicht expandiert.
Die Kumulus-Eizell Komplexe wurden nun für 20-24 Stunden mit Prostaglandin E2 (PGE2) (0,3 µM), Vehikel Kontrolle (Ethanol) oder Testsubstanzen inkubiert. Medium: alpha- MEM Medium mit 0,1 mM IBMX, Pyruvate (0,23 mM) Glutamine (2 mM), Pen/Strep 100 IU/ml Pen. und 100 µg/ml Strep.) und HSA (8 mg/ml). Danach wurde die Kumulus Expansion durch die Einteilung in vier Stadien (nach Vanderhyden et al. Dev Biol. 1990 Aug;140(2):307-317) festgestellt. Tabelle 1: Beispiel für die biologische Wirksamkeit der erfindungsgemäßen Verbindungen (gemessen mittels cAMP Antagonismustest): […]

Assay [1] addresses T1, EP2-Subtyp des humanen PGE2-Rezeptors (Homo sapiens, UniProt P43116).
T1 construct: host or cells: cells in a culture plate
Briefly: cAMP antagonism test (HTRF cAMP detection, PGE2-stimulated cells). It counts as cell-based. Conditions: cAMP Antagonismustest, in presence of agonist PGE2; read-out: Antagonismus [IC50. An excerpt: Die Bindung von PGE2 an den EP2-Subtyp des humanen PGE2-Rezeptors induziert die Aktivierung membranständiger Adenylatzyklasen und führt zur Bildung von cAMP. In Gegenwart des Phosphodiesteraseinhibitors IBMX wird das durch diese Stimulation akkumulierte und mittels Zell-Lyse freigesetzte cAMP in einem kompetitiven Nachweisverfahren eingesetzt. In diesem Test konkurriert das cAMP im Lysat mit cAMP-XL665 um die Bindung eines Eu-Kryptat markierten Anti-cAMP Antikörpers.
Dabei entsteht in Abwesenheit von zellulärem cAMP ein maximales Signal, welches auf der Kopplung dieses Antikörpers an das cAMP-XL665 Molekül beruht. Dadurch entsteht nach Anregung bei 337 nm ein auf FRET (fluorescence resonance energy transfer) basierendes, langanhaltendes Emissionssignal bei 665 nm (und bei […]). Beide Signale werden in einem geeigneten Messgerät zeitlich versetzt, d.h. nach Abklingen der Hintergrundsfluoreszenz gemessen. Jegliche Erhöhung des durch Prostglandin-E2-Gabe bedingten niedrigen FRET-Signals (gemessen als Well-Ratio-Veränderung = Emission665nm/Emission620nm * 10000) zeigt die Wirkung von Antagonisten.
Die in einer Testplatte und 30 % DMSO vorgelegten Substanzlösungen (0.75 µl) wurden in 16 µl einer KRSB+IBMX-Stimulationslösung gelöst (1 X Krebs-Ringer Bicarbonate Buffer; Sigma-Aldrich # K-4002; inklusive 750 µM 3-Isobutyl-1-methylxanthine Sigma-Aldrich # I-7018), anschließend wurden 15 µl davon in eine medienfreie Zellkulturplatte überführt, die kurz zuvor mit KRSB gewaschen worden war.
Nach einer 30-minütigen Vorinkubation bei Raumtemperatur (RT) wurden 5 µl einer 4xPGE2 Lösung (11 nM) zugegeben und in Gegenwart des Agonisten für weitere 60 min bei RT inkubiert (Volumen: ∼ 20 µl), bevor die Reaktion anschließend durch Zugabe von 5 µl Lysispuffer gestoppt und für weitere 20 min bei RT inkubiert wurde (Volumen: ∼ 25 µl). Das Zell-Lysat wurde anschließend in eine Messplatte überführt und entsprechend den Herstellerangaben (cyclic AMP kit Cisbio International # 62AMPPEC) gemessen.
In general terms: TR-FRET usually uses a lanthanide donor and a delayed reading to cut background.

Assay [2] concerns the target T1, EP2-Subtyp des humanen PGE2-Rezeptors. Briefly: cellular cAMP agonism test (without PGE2). The class given is cell-based.

T1 sequence (P43116 whole entry): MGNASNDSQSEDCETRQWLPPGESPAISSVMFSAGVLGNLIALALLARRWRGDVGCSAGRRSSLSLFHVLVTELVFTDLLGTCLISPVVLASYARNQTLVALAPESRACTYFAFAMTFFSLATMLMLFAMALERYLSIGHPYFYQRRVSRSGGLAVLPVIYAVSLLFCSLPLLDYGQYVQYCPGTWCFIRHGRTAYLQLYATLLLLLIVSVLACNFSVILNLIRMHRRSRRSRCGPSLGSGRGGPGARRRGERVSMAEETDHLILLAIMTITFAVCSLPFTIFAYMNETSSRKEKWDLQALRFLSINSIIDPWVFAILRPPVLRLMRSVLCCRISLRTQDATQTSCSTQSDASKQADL

On to `CC(C)Oc1ccc2c(=O)c3cc(C(=O)O)ccc3oc2c1` [AH 6809, reference compound], for which the “Unterdrückung der Kumulus Expansion” value with Kumulus-Eizell Komplexe (100 - 200 µM) is recorded as “ca. 30%”.

With `COc1ccc(C(=O)NCCc2c(C)[nH]c3c(F)cc(F)cc23)cc1OC` [Beispiel 3, N-[2-(5,7-Difluor-2-methyl-1H-indol-3-yl)-ethyl]-3,4-dimethoxy-benzamid], in assay [1], the IC50 (commonly the concentration needed to halve the response being measured) came to 700 nM.

With `Cc1[nH]c2c(F)c(F)ccc2c1CCNC(=O)c1cc2cc(Cl)ccc2[nH]1` [Beispiel 5, 5-Chlor-1H-indol-2-carbonsäure [2-(6,7-difluor-2-methyl-1H-indol-3-yl)-ethyl]-amid], in assay [1], the IC50 came to 71 nM.

On to `Cc1[nH]c2c(F)c(Cl)ccc2c1CCNC(=O)c1cc2cc(F)ccc2[nH]1` [Beispiel 6, 5-Fluor-1H-indol-2-carbonsäure [2-(6-chlor-7-fluor-2-methyl-1H-indol-3-yl)-ethyl]-amid], for which, in assay [1], the IC50 is 200 nM.

As for `COc1ccc(C(=O)NCCc2c(C)[nH]c3c(F)cc(Br)c(C)c23)cc1OC` [Beispiel 8, N-[2-(5-Brom-7-fluor-2,4-dimethyl-1H-indol-3-yl)-ethyl]-3,4-dimethoxy-benzamid], the half-inhibitory concentration (IC50) in assay [1] came out at 1800 nM.

As to `Cc1[nH]c2c(F)cc(Br)cc2c1CCNC(=O)c1cc2cc(F)ccc2[nH]1` [Beispiel 10, 5-Fluor-1H-indol-2-carbonsäure [2-(5-brom-7-fluor-2-methyl-1H-indol-3-yl)-ethyl]-amid], in assay [1], the IC50 was 82 nM. Besides, the “Wirkung im zellulären Agonismustest” value in assay [2] is recorded as “keine Inhibition”. Besides, the “Unterdrückung der Kumulus Expansion” value in the assay with Kumulus-Eizell Komplexe (5 µM) was “ca. 75%”.
